Experimental data as given in the supplement of paper PMC8882468.

Tests used:
Assay in all cases: CTG-3D luminescence at 96 h relative to day-0 seeding control (ratio to day 0); higher = more growth / less cytotoxicity; PDxO 3D drug screen, 96 h, CTG-3D normalised to day-0 seeding control.
HCI-024 = tested on: HCI-024 (organoid from a breast cancer xenograft)
HCI-017.E2 = tested on: HCI-017.E2 (organoid from an ER-positive breast cancer xenograft)
HCI-001 = tested on: HCI-001 (organoid from a triple-negative breast cancer xenograft)
HCI-012 = tested on: HCI-012 (organoid from a breast cancer xenograft)
HCI-005.E2 = tested on: HCI-005.E2 (organoid from a breast cancer xenograft with a HER2-positive history)
HCI-003.E2 = tested on: HCI-003.E2 (organoid from an ER-positive breast cancer xenograft)

CN(Cc1cnc2nc(N)nc(N)c2n1)c1ccc(C(=O)N[C@@H](CCC(=O)O)C(=O)O)cc1 [methotrexate]
CTG-3D luminescence at 96 h
Details	12.5 pM	0.00025 µM	0.005 µM	0.1 µM	1 µM	10 µM	100 µM	625 fM
HCI-001, days in culture: 240	2.01	1.12	1.13	1.01	1.26	1.06	1.21	1.72
HCI-001, days in culture: 260	2.08	0.984	2.27	1.47	1.43	1.62	0.88	1.26
HCI-001, days in culture: 269	1.68	1.46	1.53	1.86	1.46	2.16	2.3	1.5
HCI-001, days in culture: 327	1.75	1.62	2.05	1.14	0.877	0.985	1.35	1.69
HCI-001, days in culture: 346	1.53	1.34	1.28	1.02	0.965	1.41	1.19	1.2
HCI-001, days in culture: 364	1.58	1.17	1.45	0.891	0.633	1.11	0.716	1.64
HCI-012, days in culture: 143	2.07	1.83	2.09	1.37	1.4	1.33	1.51	2.07
HCI-012, days in culture: 162	2.66	2.5	2.06	1.69	1.04	1.12	1.06	2.7
HCI-012, days in culture: 201	2.49	2.01	1.57	0.935	1.44	0.611	1.21	1.49
HCI-017.E2, days in culture: 85	2.97	2.49	2.7	2.26	2.43	2.05	2.13	2.34
HCI-024, days in culture: 105	1.92	1.49	1.24	1.99	1.64	2	1.44	1.83
HCI-024, days in culture: 122	1.69	2.22	2.07	2	2.13	2.46	1.82	2.88
HCI-024, days in culture: 163	1.9	2.08	1.83	2.4	2.14	2.03	1.74	2.12

CTG-3D luminescence at 96 h
Details	12.5 pM	0.00025 µM	0.005 µM	0.1 µM	1 µM	10 µM	100 µM	625 fM
HCI-003.E2	2.32	2.47	2.09	2.12	1.83	1.9	1.64	2.12
HCI-005.E2	2.09	1.81	1.86	1.02	0.572	0.678	0.678	2.1
HCI-017.E2	2.07	2.19	2.14	2	2.22	2.19	2.15	2.05

COc1cccc2c1C(=O)c1c(O)c3c(c(O)c1C2=O)C[C@@](O)(C(=O)CO)C[C@@H]3O[C@H]1C[C@H](N)[C@H](O)[C@H](C)O1 [doxorubicin]
CTG-3D luminescence at 96 h
Details	12.5 pM	0.00025 µM	0.005 µM	0.1 µM	1 µM	10 µM	100 µM	625 fM
HCI-001, days in culture: 240	1.83	0.976	0.995	1.06	0.795	0.102	0.0662	1.82
HCI-001, days in culture: 260	2.69	0.99	2.06	1.71	0.863	0.169	0.0518	1.54
HCI-001, days in culture: 269	1.42	1.69	1.45	1.69	0.478	0.0884	0.00519	1.42
HCI-001, days in culture: 327	1.28	1.49	1.57	1.78	1.18	0.146	0.284	1.5
HCI-001, days in culture: 346	1.4	1.22	1.02	1.01	0.949	0.141	0.182	1.14
HCI-001, days in culture: 364	1.33	1.06	1.3	0.946	0.616	0.116	0.143	1.49
HCI-012, days in culture: 143	1.78	1.93	1.8	0.35	0.0586	-0.00257	-0.0149	1.91
HCI-012, days in culture: 162	2.15	2.16	2.04	0.961	0.0655	0.00235	-0.0139	3.15
HCI-012, days in culture: 201	2.84	1.58	1.7	0.408	0.0363	0.000335	-0.0192	1.33
HCI-017.E2, days in culture: 85	2.94	3.18	2.56	2.01	1.71	0.616	0.808	2.4
HCI-024, days in culture: 105	1.87	1.64	1.47	1.53	1.05	0.158	0.154	2.18
HCI-024, days in culture: 122	2.06	2.32	1.72	1.45	1.06	0.153	0.156	2.88
HCI-024, days in culture: 163	1.43	2.44	1.96	2.3	1.38	0.176	0.187	1.44

CTG-3D luminescence at 96 h
Details	12.5 pM	0.00025 µM	0.005 µM	0.1 µM	1 µM	10 µM	100 µM	625 fM
HCI-003.E2	2.13	2.46	2.07	2.22	1.15	0.024	-0.00504	2.13
HCI-005.E2	1.5	1.93	1.21	1.07	0.557	-0.00289	-0.00667	1.71
HCI-017.E2	1.87	2.06	2.07	1.89	1.2724	0.484	0.598	2.26

Cc1nc(-c2cn3c(n2)-c2ccc(-c4cnn(C(C)(C)C(N)=O)c4)cc2OCC3)n(C(C)C)n1 [taselisib]
CTG-3D luminescence at 96 h
Details	12.5 pM	0.00025 µM	0.005 µM	0.1 µM	1 µM	10 µM	100 µM	625 fM
HCI-001, days in culture: 240	1.68	0.982	1.07	0.482	0.567	0.383	0.093	1.22
HCI-001, days in culture: 260	2.04	1.03	1.04	0.934	0.486	0.536	0.019	1.57
HCI-001, days in culture: 269	1.61	1.56	1.43	1.21	0.629	0.576	0.0422	1.86
HCI-001, days in culture: 327	1.4	1.39	1.7	1.66	0.874	0.542	0.213	1.84
HCI-001, days in culture: 346	1.31	1.22	1.02	1.1	1.15	0.603	0.269	1.12
HCI-001, days in culture: 364	1.5	1.06	1.37	0.786	0.791	0.737	0.0204	1.53
HCI-012, days in culture: 143	2.1	2.32	2.04	1.89	1.21	0.59	0.046	1.82
HCI-012, days in culture: 162	2.56	2.08	1.72	2.19	1.1	0.703	0.0208	2.93
HCI-012, days in culture: 201	2.64	2	1.44	1.62	1.56	0.385	0.0205	1.75
HCI-017.E2, days in culture: 85	3.03	2.91	1.97	0.848	0.668	0.194	0.166	2.38
HCI-024, days in culture: 105	1.47	1.44	1.54	1.77	1.34	0.981	0.403	1.9
HCI-024, days in culture: 122	2.21	2.49	1.79	1.88	1.6	1.81	0.258	2.63
HCI-024, days in culture: 163	1.36	2.13	1.7	2.36	2.06	1.62	0.316	2

CTG-3D luminescence at 96 h
Details	12.5 pM	0.00025 µM	0.005 µM	0.1 µM	1 µM	10 µM	100 µM	625 fM
HCI-003.E2	2.19	2.28	1.77	0.633	0.183	0.0364	0.0189	2.14
HCI-005.E2	1.52	1.77	1.52	1.21	0.401	0.348	0.34	2.12
HCI-017.E2	1.88	1.78	1.32	0.638	0.448	0.204	0.178	2.06

CC(C)n1nc(-c2ccc3oc(N)nc3c2)c2c(N)ncnc21 [sapanisertib]
CTG-3D luminescence at 96 h
Details	12.5 pM	0.00025 µM	0.005 µM	0.1 µM	1 µM	10 µM	100 µM	625 fM
HCI-001, days in culture: 240	1.65	0.951	0.588	0.395	0.551	0.311	0.187	1.12
HCI-001, days in culture: 260	2.4	1.29	1.61	0.622	0.652	0.468	0.21	1.6
HCI-001, days in culture: 269	1.45	1.79	1.19	0.45	0.559	0.643	0.22	1.56
HCI-001, days in culture: 327	1.36	0.761	1.33	0.802	0.759	0.319	0.111	1.75
HCI-001, days in culture: 346	1.38	1.32	1.09	0.528	0.577	0.315	0.15	1.13
HCI-001, days in culture: 364	1.44	1.12	1.21	0.397	0.464	0.318	0.14	1.46
HCI-012, days in culture: 143	1.67	2.13	1.85	1.06	0.799	0.586	0.181	1.68
HCI-012, days in culture: 162	2.13	2.28	1.6	1.27	0.748	0.846	0.197	2.82
HCI-012, days in culture: 201	2.95	2.02	1.89	0.938	1.37	0.293	0.0781	1.73
HCI-017.E2, days in culture: 85	2.96	2.53	2.39	0.979	0.43	0.202	0.141	2.59
HCI-024, days in culture: 105	1.5	1.82	1.16	0.885	0.716	0.64	0.243	1.88
HCI-024, days in culture: 122	2.28	2.85	1.86	0.922	0.842	0.81	0.3	2.57
HCI-024, days in culture: 163	2.15	1.91	1.59	1.61	1.1	0.902	0.363	1.85

CTG-3D luminescence at 96 h
Details	12.5 pM	0.00025 µM	0.005 µM	0.1 µM	1 µM	10 µM	100 µM	625 fM
HCI-003.E2	2.24	2.55	1.59	0.0566	0.0162	0.0035	-0.00157	2.03
HCI-005.E2	2.06	2.01	1.9	0.62	0.362	0.282	0.0263	1.56
HCI-017.E2	1.69	2.18	1.703	0.694	0.493	0.251	0.126	2.02
